Reference: US20070128294A1, “Treatment and prevention of liver adverse conditions using gallium” (priority 2005, published 2007)
Entries after “also recorded” stand apart in the source; their conditions may differ.

Legend:
[1] = tested on: human patient exposed to a liver-damaging agent; assay: Human patient pretreated before exposure to a liver-damaging agent, serum liver enzymes monitored; format: in vivo; settings: oral tablet or capsule to at least 10 ng/mL serum gallium before exposure; monitored every 12 hours
Description: A human patient, prior to exposure to a liver-damaging agent, is treated with gallium in the form of gallium maltolate combined with the appropriate standard excipients and/or fillers, in tablet or capsule form. Sufficient gallium maltolate is administered to obtain at least 10 ng/mL gallium in the patient's serum. The amount of gallium maltolate plus excipients necessary to reach this level is dependent on the formulation used and the size of the patient. The patient continues to take the oral medication in an amount to build the level of serum gallium and to maintain the level of at least 10 ng/mL serum.
After a period of up to 72 hours, or when the gallium serum concentration reaches the desired level, the patient is exposed to the liver-damaging agent.
The serum levels of liver enzymes are monitored at the start of the gallium treatment and every 12 hours thereafter. In particular, levels of […] and SGOT are measured. […] Gallium maltolate administration is discontinued after risk of liver damage is terminated.

[2] = Serum gallium quantitation in the adjuvant arthritis study; format: in vivo, Male Lewis rats; settings: daily oral 100 or 300 mg/kg, serum harvested one hour after final dosing
Description: Prophylactic treatment was initiated seven days prior to adjuvant injection by dosing with control vehicle or gallium maltolate (100 or 300 mg/kg gallium maltolate, containing 16 or 47 mg/kg gallium, respectively, in suspension with 1% carboxymethyl cellulose) seven days prior to adjuvant injection. Dosing was by daily oral gavage until termination. The dexamethasone-treated control animals were injected with a daily oral dose of dexamethasone (0.1 mg/kg). Body weights were measured regularly during the course of the study to track the effect of the drugs on the weight loss induced by the developing adjuvant disease, and dose volumes were adjusted accordingly. Prior to the onset of swelling, but after the establishment of systemic disease (about 7 days after adjuvant injection), caliper measurements were made of ankle joints. Ankles were measured every day until 14 days post-adjuvant injection when the rats were anesthetized and sacrificed. Serum was harvested one hour after final dosing for gallium quantitation. Hind paws, liver, and spleen were weighed, fixed, and processed for histopathologic evaluation. […] Splenic changes of inflammation, increased extramedullary hematopoiesis, and lymphoid atrophy were scored 0-5 using criteria similar to those used for scoring of inflammation. The primary endpoint was hepatomegaly, as determined by liver weight and histopathology.

[3] = tested on: Con A-treated mice (acute liver injury); assay: Concanavalin A-induced acute immune-mediated hepatitis; format: in vivo, Balb/c male mice; settings: 150 mg/kg oral gavage for 4 days prior to Con A
Description: Concanavalin A (Con A) is a powerful mitogen for and activator of T lymphocytes and its intravenous administration to mice initiates an acute immune-mediated hepatitis. The effect of preemptive gallium maltolate administration on the development of acute liver injury was assessed in vivo.
Liver injury was induced by injecting 6-8 week old Balb/c male mice (weight 25 g) with Con A, 25 mg/kg in 250 μl of phosphate-buffered saline via the tail vein. The test animals were divided into three groups of 2-8 mice each: • (a) Con A treatment • (b) Vehicle (1% carboxymethyl cellulose solution in water) per oral gavage for 4 days prior to Con A treatment • (c) 150 mg/kg gallium maltolate per oral gavage for 4 days prior to Con A treatment
For determination of serum alanine aminotransferase (ALT) levels, blood was drawn from different groups of mice 16 hours after administering Con A and measured by a commercially available enzyme assay. […] (FIG. 4). Histological assessment of centrilobular necrosis of the liver was rated for severity on a scale of 0 to 3.

[4] = tested on: adjuvant arthritic rats (adjuvant-induced hepatomegaly); assay: Adjuvant-induced acute arthritis model: hepatomegaly, liver weight and histopathology; format: in vivo
Text: A preclinical animal model was used to test the efficacy of oral gallium maltolate in treating hepatomegaly associated with adjuvant-induced acute arthritis. Male Lewis rats were used in the study. The study design was described in detail by Bendele et al. (1999) Toxicologic Pathology 27(1):134-142 and by Bendele (2001) J. Musculoskel. Neuron. Interact. 1(4):377-385.
Male Lewis rats (7 per group for gallium maltolate, 4 per group for normal controls and dexamethasone-treated controls) were injected with 100 μL of Freund's complete adjuvant/lipoidal amine (FCA/LA) subcutaneously at the base of the tail on study day 0 under anesthesia. There is a rapid onset (7 d) of arthritic symptoms in this model, including ankle inflammation, liver and spleen hypertrophy, bone resorption, and mild cartilage destruction.
Prophylactic treatment was initiated seven days prior to adjuvant injection by dosing with control vehicle or gallium maltolate (100 or 300 mg/kg gallium maltolate, containing 16 or 47 mg/kg gallium, respectively, in suspension with 1% carboxymethyl cellulose) seven days prior to adjuvant injection. Dosing was by daily oral gavage until termination. The dexamethasone-treated control animals were injected with a daily oral dose of dexamethasone (0.1 mg/kg). Body weights were measured regularly during the course of the study to track the effect of the drugs on the weight loss induced by the developing adjuvant disease, and dose volumes were adjusted accordingly. Prior to the onset of swelling, but after the establishment of systemic disease (about 7 days after adjuvant injection), caliper measurements were made of ankle joints. Ankles were measured every day until 14 days post-adjuvant injection when the rats were anesthetized and sacrificed. Serum was harvested one hour after final dosing for gallium quantitation. Hind paws, liver, and spleen were weighed, fixed, and processed for histopathologic evaluation. Adjuvant arthritic ankles were given scores of 0-5 (0=normal; 5=severe) for inflammation and bone resorption. Splenic changes of inflammation, increased extramedullary hematopoiesis, and lymphoid atrophy were scored 0-5 using criteria similar to those used for scoring of inflammation. The primary endpoint was hepatomegaly, as determined by liver weight and histopathology.

[5] = oral 100 and 300 mg/kg/day, adjuvant arthritic rats

## Cc1occc(=O)c1[O-].Cc1occc(=O)c1[O-].Cc1occc(=O)c1[O-].[Ga+3] [gallium maltolate]
[1]
  serum levels of liver enzymes (SDOT and SGOT): do not rise to any significant extent
[2]
  serum gallium levels attained: dose-dependent
[3]; blood 16 hours after Con A, versus the other two test groups
  serum alanine aminotransferase (ALT) levels: greatly reduced
[3]; severity scale 0 to 3
  centrilobular necrosis of the liver, histological assessment: No necrosis
[4]; 300 mg/kg/day oral for 21 days, 100x magnification
  lobular pattern of liver, histology (FIG. 3A): No accentuation of the lobular pattern
[4]; daily oral dosing for 14 days, 100 or 300 mg/kg, Lewis rats
  signs of toxicity: no signs of toxicity
[4]; gallium treated versus untreated adjuvant arthritic rats
  liver pathology, histopathological examination of the livers: inhibited the development of liver pathology
[4]; [5]
  liver hypertrophy (adjuvant-induced hepatomegaly): marked reduction; also recorded: Significant dose-dependent protection
  spleen hypertrophy: marked reduction
